ChEMBL document CHEMBL1201862, “PubChem BioAssay data set” (2004)
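All cell lines were grown in 96-well plates and treated with compound for 48 hours. Here, GI50 denotes the concentration required for 50% inhibition of growth.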 Calls of active or inactive are those of the source. Cut-off read from the data, not from the text of the source: active = GI50 up to about 1.1 µM and inactive = higher.

Assays:
Experiment in all cases: NCI-60 cell line screen, 48 h
A498 = system: A498
CAKI-1 = system: CAKI-1
COLO 205 = system: COLO 205
HOP-92 = system: HOP-92
HT-29 = system: HT-29
IGROV-1 = system: IGROV-1
KM12 = system: KM12
LOX IMVI = system: LOX IMVI
M14 = system: M14
MDA-MB-231 = system: MDA-MB-231
NCI-H226 = system: NCI-H226
RPMI-8226 = system: RPMI-8226
SF-539 = system: SF-539
SK-MEL-28 = system: SK-MEL-28
TK-10 = system: TK-10
U-251 = system: U-251
CCRF-CEM = system: CCRF-CEM
OVCAR-3 = system: OVCAR-3
SR = system: SR

Measured: GI50

CCOC(=O)C1C(C)C2(C#N)C(=N)OC1(C)C2(C#N)C#N (configuration not stated)
inactive: A498 > 100 µM | CAKI-1 53.6 µM | COLO 205 > 100 µM | HOP-92 30.1 µM | HT-29 58.9 µM | IGROV-1 39.2 µM | KM12 > 100 µM | LOX IMVI 26.8 µM | M14 > 100 µM | MDA-MB-231 > 100 µM | NCI-H226 73.8 µM | RPMI-8226 18.5 µM | SF-539 47.2 µM | SK-MEL-28 28.1 µM | TK-10 77.6 µM | U-251 69.2 µM

COC(=O)c1ccccc1/C=C1\Cc2ccc(C)c(C)c2C1=O
inactive: A498 > 100 µM | CAKI-1 > 100 µM | CCRF-CEM > 100 µM | COLO 205 > 100 µM | HOP-92 34.2 µM | HT-29 > 100 µM | IGROV-1 > 100 µM | KM12 > 100 µM | LOX IMVI > 100 µM | M14 > 100 µM | NCI-H226 > 100 µM | OVCAR-3 > 100 µM | RPMI-8226 > 100 µM | SF-539 > 100 µM | SK-MEL-28 > 100 µM | SR > 100 µM | TK-10 > 100 µM | U-251 48.6 µM

CC(CO)C1C[C@H](O)[C@@]2(C)CC(=O)C=C(CO)[C@@H]2C1 (some centres not stated)
inactive: A498 > 100 µM | CAKI-1 > 100 µM | COLO 205 > 100 µM | HOP-92 > 100 µM | HT-29 > 100 µM | IGROV-1 > 100 µM | KM12 > 100 µM | LOX IMVI > 100 µM | M14 > 100 µM | MDA-MB-231 > 100 µM | NCI-H226 > 100 µM | OVCAR-3 > 100 µM | SF-539 > 100 µM | SK-MEL-28 > 100 µM | TK-10 > 100 µM | U-251 > 100 µM

Nc1nc2cc(CNc3ccc(C(=O)NC(CCC(=O)O)C(=O)O)cc3)ccc2nc1-c1ccccc1 (configuration not stated)
inactive: A498 > 10 µM | CAKI-1 > 10 µM | CCRF-CEM > 10 µM | COLO 205 > 10 µM | HT-29 > 10 µM | IGROV-1 > 10 µM | KM12 > 10 µM | LOX IMVI > 10 µM | M14 > 10 µM | MDA-MB-231 > 10 µM | NCI-H226 > 10 µM | OVCAR-3 > 10 µM | RPMI-8226 > 10 µM | SF-539 > 10 µM | SK-MEL-28 > 10 µM | TK-10 > 10 µM | U-251 > 10 µM

CC(C)=C[C@H]1CCC2(OCCO2)[C@]1(C)CO
inactive: A498 > 100 µM | CAKI-1 > 100 µM | CCRF-CEM > 100 µM | COLO 205 > 100 µM | IGROV-1 > 100 µM | KM12 > 100 µM | LOX IMVI > 100 µM | M14 > 100 µM | MDA-MB-231 > 100 µM | NCI-H226 > 100 µM | RPMI-8226 > 100 µM | SF-539 > 100 µM | SK-MEL-28 > 100 µM | TK-10 > 100 µM

CN(C)c1ncnc2c1ncn2C1C=CC(COS(N)(=O)=O)C1 (configuration not stated)
inactive: A498 > 100 µM | CAKI-1 > 100 µM | CCRF-CEM > 100 µM | COLO 205 > 100 µM | HOP-92 > 100 µM | HT-29 > 100 µM | IGROV-1 > 100 µM | KM12 > 100 µM | LOX IMVI 96.2 µM | M14 > 100 µM | OVCAR-3 > 100 µM | RPMI-8226 > 100 µM | SF-539 > 100 µM | SK-MEL-28 > 100 µM | SR > 100 µM | U-251 > 100 µM

Cn1c(=O)nc2n(-c3ccc(Cl)cc3)c3ccc(Cl)cc3nc-2c1=O
inactive: A498 5.58 µM | CAKI-1 4.45 µM | CCRF-CEM 13.6 µM | HOP-92 7.05 µM | HT-29 8.79 µM | IGROV-1 19.5 µM | KM12 14.5 µM | LOX IMVI 3.14 µM | M14 9.06 µM | NCI-H226 11.5 µM | OVCAR-3 2.57 µM | SK-MEL-28 9.23 µM | SR 7.62 µM | TK-10 18.2 µM | U-251 1.98 µM

CC(C(O)c1ccccc1)N(C)/N=N/c1nc2c([nH]1)c(=O)n(C)c(=O)n2C (configuration not stated)
inactive: CAKI-1 58.6 µM | CCRF-CEM 47.2 µM | COLO 205 41.4 µM | HT-29 39.6 µM | IGROV-1 35.2 µM | KM12 46.2 µM | M14 > 100 µM | MDA-MB-231 92.3 µM | NCI-H226 > 100 µM | OVCAR-3 > 100 µM | RPMI-8226 48.9 µM | SK-MEL-28 > 100 µM | TK-10 64.1 µM | U-251 > 100 µM

CCN1N=CSC12C(=O)N(c1ccccc1)C(=O)N2c1ccccc1 (configuration not stated)
inactive: A498 > 100 µM | CAKI-1 > 100 µM | CCRF-CEM > 100 µM | COLO 205 > 100 µM | HOP-92 > 100 µM | HT-29 > 100 µM | IGROV-1 > 100 µM | KM12 > 100 µM | LOX IMVI > 100 µM | M14 > 100 µM | NCI-H226 > 100 µM | OVCAR-3 > 100 µM | SF-539 > 100 µM | SK-MEL-28 > 100 µM | SR > 100 µM | TK-10 > 100 µM | U-251 > 100 µM

COc1cc(COC(=O)N(CC(=O)O)c2ccccc2)c([N+](=O)[O-])cc1OC
inactive: A498 62.7 µM | CCRF-CEM > 100 µM | COLO 205 > 100 µM | HOP-92 > 100 µM | HT-29 > 100 µM | IGROV-1 > 100 µM | KM12 > 100 µM | M14 > 100 µM | NCI-H226 > 100 µM | OVCAR-3 > 100 µM | RPMI-8226 > 100 µM | SF-539 > 100 µM | SK-MEL-28 > 100 µM | SR > 100 µM | TK-10 > 100 µM | U-251 > 100 µM

C=CCCCC1CCCNC1=O (configuration not stated)
inactive: A498 > 100 µM | CAKI-1 > 100 µM | HOP-92 > 100 µM | HT-29 > 100 µM | IGROV-1 > 100 µM | KM12 > 100 µM | M14 > 100 µM | MDA-MB-231 > 100 µM | NCI-H226 > 100 µM | OVCAR-3 > 100 µM | RPMI-8226 > 100 µM | SF-539 > 100 µM | SK-MEL-28 > 100 µM | TK-10 > 100 µM | U-251 > 100 µM

FC(F)(F)c1ccc(/C=N/C23CC4CC(CC(C4)C2)C3)cc1
inactive: A498 > 100 µM | CAKI-1 > 100 µM | CCRF-CEM > 100 µM | COLO 205 > 100 µM | HOP-92 > 100 µM | HT-29 > 100 µM | IGROV-1 > 100 µM | KM12 > 100 µM | LOX IMVI > 100 µM | M14 > 100 µM | NCI-H226 > 100 µM | OVCAR-3 > 100 µM | RPMI-8226 > 100 µM | SF-539 > 100 µM | SK-MEL-28 > 100 µM | SR > 100 µM | TK-10 > 100 µM | U-251 > 100 µM
